“Also recorded” adds a separate entry of the source.

Data set [1] relates to androgen-independent prostate cancer. Description: Treatment of male patients with androgen-independent prostate cancer (Example 1). The data set is classed as in vivo, human. Particulars: majority of patients treated. On the procedure:
Three male patients were selected for treatment on the basis of established diagnosis with prostate cancer. All three patients had failed standard androgen withdrawal therapy. Average prostate-specific antigen (“PSA”) levels for each patient at the beginning of treatment was about 20-30 ng/ml. Hormone ablative therapy, in some cases aggressively administered as long as 36 months, had failed, manifested by a continued rise in PSA levels in each patient. […] Each patient continued to receive luteinizing hormone-releasing hormone (“LHRH”)-agonist therapy, despite tumor growth in its presence. This is considered standard therapy, as tumor growth is likely to be more aggressive if testosterone levels were allowed to return to normal in these patients.

The conditions of data set [2]: EVISTA package insert; cited from earlier work.
The subject of a further data set is MSKPC9 tumor xenografts. The experiment in a line: Growth of androgen independent MSKPC9 tumor xenografts. The data set is classed as in vivo, nude athymic BALB/c male mice. Particulars: 40 mg/kg 5x/wk p.o., orchiectomized mice. How it is done: Xenograft studies were performed as described in D. B. Agus et al., “Response of prostate cancer to anti-Her-2/neu antibody in androgen-dependent and -independent human xenograft models,” Cancer Res. 59(19):4761-4764 (1999). Orchiectomized seven- to eight-week-old nude athymic BALB/c male mice were obtained from the National Cancer Institute and maintained in pathogen-free conditions. Mice were inoculated subcutaneously (“s.c.”) with minced tumor tissue together with […] reconstituted basement membrane (available from BD Biosciences Discovery Labware; Bedford, Mass.) from the established androgen independent (“AI”) MSKPC9 xenograft cell lines; cell lines are described in M. Nagabhushan et al., “CWR22: the first human prostate cancer xenograft with strongly androgen-dependent and relapsed strains both in vivo and in soft agar,” Cancer Res. 56(13):3042-3046 (1996), and D. B. Agus et al., “Prostate cancer cell cycle regulators: response to androgen withdrawal and development of androgen independence,” J. Natl. Cancer Inst. 91(21):1869-76 (1999).
Tumors were measured twice weekly with vernier calipers, and tumor volumes were calculated by the formula (π/6)×(larger diameter)×(smaller diameter)^2, described in M. F. Press et al., “HER-2/neu gene amplification characterized by fluorescence in situ hybridization: poor prognosis in node-negative breast carcinomas,” J. Clin Oncol. […]

The subject of the next data set is PSA. The experiment in a line: PSA levels in animals with MSKPC9 xenografts (enzymatic immunoassay). Type of data set: in vivo, nude athymic BALB/c male mice. How it is done:
Levels of PSA in the blood of implanted animals were determined using an enzymatic immunoassay kit (obtained from American Qualex; San Clemente, Calif.). Blood samples were obtained prior to treatment by a small incision in the dorsal tail vein to collect 50 μl of blood using a serum-separator tube, or via a cardiac draw at sacrifice.

Data set [3] relates to androgen-independent prostate cancer (AIPC). The experiment in a line: Clinical study of raloxifene in androgen-independent prostate cancer: response and survival. Type of data set: in vivo, human. The text has this:
Between August 2001 and July 2002, twenty-one patients were enrolled into the study at the Prostate Cancer Center of Cedars-Sinai Medical Center in Los Angeles, Calif. Patients who were eligible for the study were men who had histologically confirmed adenocarcinoma of the prostate and confirmed disease progression after hormonal therapy. Patients were required to have progression of disease as evidenced by CT scan or rising PSA on two successive measurements after discontinuation of anti-androgen therapy. In addition, patients receiving androgen receptor-blocking agents as their last form of therapy had to have confirmed disease progression after drug withdrawal. Nonsurgically castrated patients continued to receive LHRH agonist while on study to maintain castrate levels of serum testosterone.
Both patients with measurable disease by either bone scan or CT scan, and evaluable disease evidenced by rising PSA were included in the study. Patients whose only evidence of disease progression was rising PSA had to have an increasing PSA on any two determinations drawn at two least weeks apart, with a greater than 20% increase from the baseline value. Other eligibility criteria included: Karnofsky performance status >70%, life expectancy >12 weeks (with at least four weeks since major surgery or radiation therapy), and at least 12 weeks for treatment with strontium-89, rhenium, or samarium-153. […] Patients with a history of uncontrolled or severe cardiovascular disease (e.g., inadequately uncontrolled hypertension, congestive heart failure, angina, or myocardial infarction within the previous year), a history of thromboembolism, a history of biliary colic or untreated cholethiasis were excluded. Patients with brain metastasis, clinical signs of brain involvement or leptomeningeal disease, dementia, psychoses, or other significant impairment of mental status were excluded. Patients with a history of another malignancy during the past five years (other than non-melanomatous skin cancer or in situ stage T1a bladder cancer), patients with active infections requiring antibiotics, or patients on concurrent commercial or investigational antineoplastic therapies were excluded. No concomitant use of prostata or saw palmetto was permitted.
Response to therapy was assessed after the first two months of therapy and then monthly thereafter. Toxicity was assessed monthly at each study visit. […] A partial response (“PR”) required a decrease by >50% of the sum of the products of the perpendicular diameters for all measurable lesions lasting at least one month, no appearance of new lesions, and a reduction in serum PSA by >50% on two consecutive occasions at least one month apart. For patients being evaluated by bone metastases, a PR required a reduction in serum PSA by >50% on two consecutive occasions at least one month apart an improvement in bone scan (reduction in intensity or size of one or more metastatic foci and no new foci of radionuclide uptake unless due to […] healing documented on plain radiograph, CT scan, or MRI scan). During this time there should have been no cancer-associated deterioration in weight, performance status, or symptoms. Progressive disease (“PD”) was defined by any of the following: (1) increase >25% in the sum of the products of the perpendicular diameters of bidimensionally measurable lesions in the sum of the transverse diameters of unidimensionally measurable lesions, (2) the appearance of new lesions, and (3) by the increase in serum PSA >50% over baseline as documented on two successive measurements >28 days apart. […] For PD to be scored by PSA criteria alone, a confirmatory PSA determination was required and obtained two weeks after the value representing a >50% increase. Patients who had improvement in one objective parameter while meeting the criteria for PD by another parameter were scored as having PD.
Treatment was administered with monthly lab draws and follow-up visits with the physician. […]

With `O=C(c1ccc(OCCN2CCCCC2)cc1)c1c(-c2ccc(O)cc2)sc2cc(O)ccc12` [raloxifene], in data set [1], the “tumor stabilization (non-progression), leveling off of rising serum PSA” value is reported as “tumor stabilization occurred”. Also, the “tolerability in previous clinical studies” value in data set [2] is listed as “well tolerated”. In addition, in the data set with MSKPC9 tumor xenografts, the “mean tumor volume vs control group (FIG. 1A)” value is reported as “reduction in mean tumor volume; also recorded: tumors were smaller” and the “mean tumor weight vs control group (FIG. 1B)” value is reported as “reduction in mean tumor weight”. In the data set with PSA (MSKPC9 tumor xenografts, raloxifene treatment), the “PSA (per tumor volume) (FIG. 3)” value was “increasing”. In addition, the “levels of PSA in the blood of implanted animals (FIG. 3)” value in the data set with PSA (MSKPC9 xenograft animals treated with raloxifene) is recorded as “rising PSA levels”. In data set [3] (60 mg oral daily), the “improvement in soft tissue or bone disease” value was “No improvement in soft tissue or bone disease was observed”, the “median time to disease progression” value was 8.3 weeks, the “patients with progressive disease at the first evaluation time point” value is given as “thirteen of the eighteen” and the “patients with stable disease at the first evaluation time point” value was “five of eighteen”. In data set [3] (60 mg oral daily), the “time to disease progression, range” value is reported as 2.9-24.71 weeks. Also, the “progression of soft tissue or osseous disease” value in data set [3] (60 mg oral daily, first evaluation time point) is reported as “No progression of soft tissue or osseous disease was observed”. Further, in data set [3] (as of July, 2003, 19 of 21), the patients alive was 90%. The same compound registered a median survival in data set [3] (at time of analysis (November, 2002)) of 10.5 months. Further, the “patients discontinued due to progressive disease (rising PSA) at the second evaluation point” value in data set [3] (of the five patients with stable disease) is “four”.

The values are drawn from US7425565B2, “Use of benzothiopenes to treat and prevent prostate cancer” (Cedars-Sinai Medical Center, priority 2002, dated 2008).
